How the values were obtained:
[1] = subcutaneously injected; Rost, et al., 1998; cited from earlier work
[2] = Safety of thymalfasin in humans; format: in vivo, human
Description: (§1) TLP expression-enhancing amounts of thymalfasin peptide can be determined by routine dose-titration experiments. Up-regulation of TLP can be achieved in vivo by administration of between 2 μg/kg and 6 mg/kg body weight of thymalfasin, preferably between 20 μg/kg and 200 μg/kg.

[3] = Safety of thymalfasin in rats; format: in vivo, rat
Description: as §1

For “Ac-SDAAVDTSSEITTKDLKEKKEVVEEAEN-OH [thymalfasin]”, the plasma half-life [1] is listed as “about 2 hours”, the “dose found to be safe” value [2] is listed as ≤ 16 mg/dose/day and the “dose found to be safe” value [3] is listed as ≤ 6 mg/kg/day.
